These results are taken from patent US4816472A, “Derivatives of 19,20-Bis-nor-prostanoic acid with antiulcer and anorectic activity, process for their preparation and pharmaceutical compositions thereof” (Istituto Biochemico Italiano Giovanni Lorenzini S.p.A., priority 1985, dated 1989).

In experiment [1] the test system is ethanol induced ulcers in the rat. The experiment is described as follows: Ethanol induced ulcers in the rat. It is filed as in vivo. As to the method: (§1) The anitulcer activity of these derivatives was evaluated on ulcers induced by the administration of ethanol, hydrochloric acid and sodium hydroxide in the rat, also on gastric ulcers induced by aspirin in the rat, and on their influence on gastric secretions in the rat.
(1) Ethanol induced ulcers in the rat:
The method used is that described by A. Robert et al, in Gastroenterology 77,433 (1979), the disclosure of which is incorporated herein by reference.

Experiment [2] concerns HCl induced ulcers in the rat. Nature of the experiment: Hydrochloric acid induced ulcers in the rat. Format: in vivo. As to the method:
as §1
(2) Hydrochloric acid induced ulcers in the rat:
The method used for this test is that described by A. Robert et al, in Gastroenterology, 77,433, (1979), the disclosure of which is incorporated herein by reference.

Experiment [3] concerns NaOH induced ulcers in the rat. The experiment is described as follows: Sodium hydroxide induced ulcers in the rat. Format: in vivo. As to the method:
as §1
(3) Sodium hydroxide induced ulcers in the rat:
Also this test is performed in accordance with the method described by A. Robert et al, in Gastroenterology, 77,433 (1979), the disclosure of which is incorporated herein by reference.

The test system of experiment [4] is aspirin-induced ulcers in the rat. Nature of the experiment: Aspirin induced gastric ulcers in the rat. It is filed as in vivo. The settings on record: 200 mg/kg of drug. On the procedure:
as §1
(4) Aspirin induced gastric ulcers in the rat:
For carrying out this test, the method described by H. A. Carmichael, L. M. Nelson, R. I. Russel in Gastroenterology 74, 1229 (1978) is used, the disclosure of which is incorporated herein by reference.

The test system of experiment [5] is gastric secretion in the rat. The experiment is described as follows: Gastric secretion in the rat. Format: in vivo, Sprague-Dawley rats. On the procedure:
as §1
(5) Gastric secretion in the rat:
Sprague-Dawley rats of both sexes are used for this test. The gastric secretion is rated according to the method described by H. Shay et al in Gastroenterology 5,43 (1945) the disclosure of which is incorporated herein by reference.

Experiment [6] deals with gastric depletion in the rat. The experiment is described as follows: Gastric depletion in the rat. Format: in vivo. As to the method:
Gastric depletion in the rat.
Rats of both sexes and mean weight of 180-200 g are used. The animals are subjected to fasting for 24 hours but have free access to water up to 3 hours prior to the test.
Preparation of phenyl red solution: 50 mg of phenyl red is mixed with 100 ml of a 1.5% methyl cellulose solution and shaken for 5 hours.
1.5 ml per rat is administered irrespective of weight.
The rats are sacrificed by cervix translocation: the stomach is taken out after ligaturing the cardias and pilorus.
The entire stomach and contents are placed in the container of a homogenizer with 50 ml of 0.1N NaOH. They are homogenized for 2 minutes at a maximum velocity. They homogenate is transferred to a test-tube and left to settle for one hour.
5 ml of the supernatant is taken out and put into a centrifuge tube and mixed with 0.5 ml of 20% (w/v) trichloroacetic acid. The tube is centrifuged at 2500 rpm for 20 min. The entire supernatant is taken and mixed with 4 ml of 0.4N NaOH, and its absorbance is measured at 560λ.
Gastric depletion is calculated according to the following formula:
(1-sample absorbance/standard absorbance)×100
As "standard absorbance" is considered the mean value of spectophotometric measurement of 4 animals sacrificed immediately after administering phenyl red.

On to `CCCCCCC1CCC(N)C1CCCCCCC(=O)O` (stereo not drawn) [drawing 8], for which the “Percent inhibition of ethanol induced ulcers in the rat” value in experiment [1] (2.5 mg/kg) is recorded as 40%; in experiment [1] (5 mg/kg), 50%; in experiment [1] (10 mg/kg), 70%; in experiment [1] (25 mg/kg), 67%; in experiment [1] (50 mg/kg) it was 88%.
Regarding `CCCCCCC1CCC(NC)C1CCCCCCC(=O)O` (stereo not drawn) [drawing 9], the “Percent inhibition of ethanol induced ulcers in the rat” value in experiment [1] (5 mg/kg) was 44%; in experiment [1] (10 mg/kg), 67%; in experiment [1] (25 mg/kg), 86%; in experiment [1] (50 mg/kg), 91%; in experiment [1] (100 mg/kg), 91%.
Take `CCCCCCC1CCC(N(C)C)C1CCCCCCC(=O)O` (stereo not drawn) [drawing 10]: the “Percent inhibition of ethanol induced ulcers in the rat” value in experiment [1] (2.5 mg/kg) is 24%; in experiment [1] (5 mg/kg), 43%; in experiment [1] (10 mg/kg) it was 62%; in experiment [1] (50 mg/kg) it was 97%; in experiment [1] (100 mg/kg), 91%.
For `CCCCCCC1CCC(NC(C)C)C1CCCCCCC(=O)O` (stereo not drawn) [drawing 11], the entries for the “Percent inhibition of ethanol induced ulcers in the rat” value in experiment [1] (10 mg/kg), in experiment [1] (25 mg/kg) and in experiment [1] (50 mg/kg) were 9%, 34% and 65%, respectively.
Take `CCCCCCC1CCC(NC(C)=O)C1CCCCCCC(=O)O` (stereo not drawn) [drawing 12]: the “Percent inhibition of ethanol induced ulcers in the rat” value is 25% in experiment [1] (10 mg/kg) and 78% in experiment [1] (100 mg/kg).
As to `CCCCCCC1CCC(O)C1CCCCCCC(=O)O` (stereo not drawn) [drawing 13], the “Percent inhibition of ethanol induced ulcers in the rat” value amounted to 9% in experiment [1] (50 mg/kg) and 37% in experiment [1] (100 mg/kg).
For the molecule `CCCCCCC1CCC(N)C1CCCCCCC(=O)O` (stereo not drawn) [drawing 14], the “Percent inhibition of HCl induced ulcers in the rat” value in experiment [2] (50 mg/kg) is on record as 68%; in experiment [2] (100 mg/kg) it was 89%; in experiment [2] (200 mg/kg), 91%.
Consider `CCCCCCC1CCC(NC)C1CCCCCCC(=O)O` (stereo not drawn) [drawing 15], for which the “Percent inhibition of HCl induced ulcers in the rat” value in experiment [2] (25 mg/kg) was determined as 40%; in experiment [2] (50 mg/kg) it was 49%; in experiment [2] (100 mg/kg), 66%.
As to `CCCCCCC1CCC(N(C)C)C1CCCCCCC(=O)O` (stereo not drawn) [drawing 16], the figures for the “Percent inhibition of HCl induced ulcers in the rat” value in experiment [2] (25 mg/kg), in experiment [2] (50 mg/kg) and in experiment [2] (100 mg/kg) were 23%, 55% and 63%, respectively.
The corresponding values for `CCCCCCC1CCC(NC(C)C)C1CCCCCCC(=O)O` (stereo not drawn) [drawing 17] are 0%, 46% and 54%.
As to `CCCCCCC1CCC(NC(C)=O)C1CCCCCCC(=O)O` (stereo not drawn) [drawing 18], the “Percent inhibition of HCl induced ulcers in the rat” value in experiment [2] (25 mg/kg) amounted to 15%; in experiment [2] (50 mg/kg), 66%.
`CCCCCCC1CCC(O)C1CCCCCCC(=O)O` (stereo not drawn) [drawing 19]: the “Percent inhibition of HCl induced ulcers in the rat” value in experiment [2] (25 mg/kg) worked out at 15%; in experiment [2] (100 mg/kg), 45%; in experiment [2] (200 mg/kg), 63%.
For `CCCCCCC1CCC(N)C1CCCCCCC(=O)O` (stereo not drawn) [drawing 20], the “Percent inhibition of NaOH induced ulcers in the rat” value in experiment [3] (5 mg/kg) is recorded as 37%; in experiment [3] (10 mg/kg), 54%; in experiment [3] (25 mg/kg) it was 80%.
As to `CCCCCCC1CCC(NC)C1CCCCCCC(=O)O` (stereo not drawn) [drawing 21], the “Percent inhibition of NaOH induced ulcers in the rat” value in experiment [3] (12.5 mg/kg) came out at 81%; in experiment [3] (25 mg/kg), 87%.
Turning to `CCCCCCC1CCC(N(C)C)C1CCCCCCC(=O)O` (stereo not drawn) [drawing 22], the “Percent inhibition of NaOH induced ulcers in the rat” value came out at 52% in experiment [3] (12.5 mg/kg), 63% in experiment [3] (25 mg/kg) and 74% in experiment [3] (50 mg/kg).
The corresponding values for `CCCCCCC1CCC(NC(C)C)C1CCCCCCC(=O)O` (stereo not drawn) [drawing 23] are 13%, 46% and 54%.
The corresponding values for `CCCCCCC1CCC(NC(C)=O)C1CCCCCCC(=O)O` (stereo not drawn) [drawing 24] are 7%, 19% and 59%.
Consider `CCCCCCC1CCC(O)C1CCCCCCC(=O)O` (stereo not drawn) [drawing 25], for which the figures for the “Percent inhibition of NaOH induced ulcers in the rat” value in experiment [3] (50 mg/kg), in experiment [3] (100 mg/kg) and in experiment [3] (200 mg/kg) were 53%, 84% and 92%, respectively.
Consider `CCCCCCC1CCC(N)C1CCCCCCC(=O)O` (stereo not drawn) [drawing 26], for which, in experiment [4], the “Percent inhibition of aspirin-induced ulcers in the rat” value is on record as 72%.
For `CCCCCCC1CCC(N)C1CCCCCCC(=O)O` (stereo not drawn) [drawing 32], the “Percent inhibition of gastric secretion in the rat” value is listed as 38% in experiment [5] (12.5 mg/kg, 2 h after treatment); 87% in experiment [5] (25 mg/kg, 2 h after treatment); 88% in experiment [5] (50 mg/kg, 2 h after treatment); 68% in experiment [5] (50 mg/kg, 4 h after treatment); 77% in experiment [5] (100 mg/kg, 2 h after treatment); 89% in experiment [5] (100 mg/kg, 4 h after treatment).
On to `CCCCCCC1CCC(NC)C1CCCCCCC(=O)O` (stereo not drawn) [drawing 33], for which the “Percent inhibition of gastric secretion in the rat” value was 0% in experiment [5] (25 mg/kg, 2 h after treatment); 40% in experiment [5] (25 mg/kg, 4 h after treatment); 54% in experiment [5] (50 mg/kg, 2 h after treatment); 49% in experiment [5] (50 mg/kg, 4 h after treatment); 79% in experiment [5] (100 mg/kg, 2 h after treatment); 66% in experiment [5] (100 mg/kg, 4 h after treatment).
Turning to `CCCCCCC1CCC(N(C)C)C1CCCCCCC(=O)O` (stereo not drawn) [drawing 34], the “Percent inhibition of gastric secretion in the rat” value stood at 74% in experiment [5] (25 mg/kg, 2 h after treatment); 23% in experiment [5] (25 mg/kg, 4 h after treatment); 75% in experiment [5] (50 mg/kg, 2 h after treatment); 55% in experiment [5] (50 mg/kg, 4 h after treatment); 82% in experiment [5] (100 mg/kg, 2 h after treatment); 63% in experiment [5] (100 mg/kg, 4 h after treatment).
As for `CCCCCCC1CCC(NC(C)C)C1CCCCCCC(=O)O` (stereo not drawn) [drawing 35], the “Percent inhibition of gastric secretion in the rat” value in experiment [5] (25 mg/kg, 2 h after treatment) amounted to 35%; in experiment [5] (25 mg/kg, 4 h after treatment) it was 0%; in experiment [5] (50 mg/kg, 2 h after treatment) it was 56%; in experiment [5] (50 mg/kg, 4 h after treatment), 46%; in experiment [5] (100 mg/kg, 2 h after treatment) it was 37%; in experiment [5] (100 mg/kg, 4 h after treatment), 54%.
For the molecule `CCCCCCC1CCC(NC(C)=O)C1CCCCCCC(=O)O` (stereo not drawn) [drawing 36], the “Percent inhibition of gastric secretion in the rat” value turned out to be 51% in experiment [5] (25 mg/kg, 2 h after treatment); 0% in experiment [5] (25 mg/kg, 4 h after treatment); 48% in experiment [5] (50 mg/kg, 2 h after treatment); 12% in experiment [5] (50 mg/kg, 4 h after treatment); 70% in experiment [5] (100 mg/kg, 2 h after treatment); 59% in experiment [5] (100 mg/kg, 4 h after treatment).
For the molecule `CCCCCCC1CCC(O)C1CCCCCCC(=O)O` (stereo not drawn) [drawing 37], the “Percent inhibition of gastric secretion in the rat” value is listed as 0% in experiment [5] (25 mg/kg, 2 h after treatment); 15% in experiment [5] (25 mg/kg, 4 h after treatment); 30% in experiment [5] (50 mg/kg, 2 h after treatment); 50% in experiment [5] (100 mg/kg, 2 h after treatment); 45% in experiment [5] (100 mg/kg, 4 h after treatment).
Turning to `CCCCCCC1CCC(N)C1CCCCCCC(=O)O` (stereo not drawn) [drawing 38], the “inhibition values of gastric depletion” value in experiment [6] (25 mg/kg) is 18%; in experiment [6] (50 mg/kg), 80%; in experiment [6] (100 mg/kg), 80%.
Turning to `CCCCCCC1CCC(NC)C1CCCCCCC(=O)O` (stereo not drawn) [drawing 39], the “inhibition values of gastric depletion” value in experiment [6] (50 mg/kg) is reported as 33%.
Same read-out and setting: in the case of `CCCCCCC1CCC(N(C)C)C1CCCCCCC(=O)O` (stereo not drawn) [drawing 40] it was 55%; in that of `CCCCCCC1CCC(NC(C)C)C1CCCCCCC(=O)O` (stereo not drawn) [drawing 41], 14%; in that of `CCCCCCC1CCC(NC(C)=O)C1CCCCCCC(=O)O` (stereo not drawn) [drawing 42], 78%.
